The compounds below were run against T1, estrogen receptor (Homo sapiens, UniProt P03372) (assay: Western blot, estrogen receptor downregulation in MCF-7:5C cells). Conditions: 24 hours, 1 nM to 1 uM.
T1 sequence (P03372 1-595): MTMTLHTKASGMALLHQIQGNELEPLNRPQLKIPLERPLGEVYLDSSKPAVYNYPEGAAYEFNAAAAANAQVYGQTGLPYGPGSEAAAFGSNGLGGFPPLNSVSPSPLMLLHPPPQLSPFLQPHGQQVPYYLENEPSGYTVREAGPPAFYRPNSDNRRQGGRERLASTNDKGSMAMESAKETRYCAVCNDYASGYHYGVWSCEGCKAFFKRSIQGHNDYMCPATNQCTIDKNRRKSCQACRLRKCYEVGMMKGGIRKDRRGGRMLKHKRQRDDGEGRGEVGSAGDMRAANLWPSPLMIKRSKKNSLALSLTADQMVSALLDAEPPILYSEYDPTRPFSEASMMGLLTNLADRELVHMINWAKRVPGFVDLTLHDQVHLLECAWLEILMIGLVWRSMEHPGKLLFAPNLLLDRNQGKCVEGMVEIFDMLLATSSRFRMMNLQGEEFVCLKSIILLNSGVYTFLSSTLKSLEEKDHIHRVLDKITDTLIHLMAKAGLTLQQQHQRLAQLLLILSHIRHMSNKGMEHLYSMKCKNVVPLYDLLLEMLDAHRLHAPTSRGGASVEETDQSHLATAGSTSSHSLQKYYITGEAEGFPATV
Assay type: cell-based
Parameters: Whole-cell extracts of cultured cells were prepared in lysis buffer; endogenous in cells
Description: (§1) Whole-cell extracts of cultured cells were prepared in lysis buffer (200 mmol/L Tris, 1% Triton X-100, 5 mmol/L EDTA) with protease and phosphatase inhibitor cocktails (1:50, both from Sigma-Aldrich) after scraping from the culture plates. Protein concentration was measured using the Bradford method (Bio-Rad). Proteins were separated under denaturing conditions and blotted onto nitrocellulose membrane (Bio-Rad) using a wet transfer system (Bio-Rad). Images of blots were acquired on a Bio-Rad ChemiDoc System following incubation with SuperSignal West Dura luminol solution (Thermo Fisher Scientific).
(§2) Fulvestrant at 1 uM concentration was assayed as a positive control.
For `O=C(O)/C=C/c1ccc(-c2c(C(=O)c3ccc(O)cc3)sc3cc(O)ccc23)cc1` [Compound 1, (E)-3-(4-(6-hydroxy-2-(4-hydroxybenzoyl)benzo[b]thiophen-3-yl)phenyl)acrylic acid], the “estrogen receptor downregulation (western blot)” value was “estrogen receptor downregulation”.

What follows are compounds tested on MCF7:5C (Tamoxifen Resistant) cells (assay: Cell viability of MCF7:5C (tamoxifen resistant), DNA content growth inhibition). Conditions: 144 h, Table 1, data normalized to 1 uM fulvestrant, day 6, read-out: MCF-5C growth inhibition IC50.
Assay type: cell-based
Description: Assays Cell Viability of MCF7:5C (Tamoxifen Resistant)
The DNA content of the cells was determined as previously described using a Fluorescent DNA Quantitation kit (cat. No. 170-2480; Bio-Rad Laboratories, Hercules, Calif.). Briefly, five thousand cells were plated per well in 96-well plates, and treatment with indicated concentrations of compounds was started at the same time in each well. On day 6, the cells in the plates were lysed and frozen at −80° C. To measure the total DNA in each well, the plates were allowed to warm to room temperature, incubated with Hoechst dye, and mixed well. The fluorescence was measured using a Synergy H4 Hybrid Multi-Mode Microplate Reader. For each analysis, six replicate wells were used and at least three independent experiments were performed.
FIG. 1 is a graph of the efficacy of Compound 1 against tamoxifen-resistant MCF-7:5 cells normalized to 1 uM fulvestrant. The y-axis is cell survival as a percent of the control and the x-axis is the concentration of the compound measured in nanomolar units.
Work on `Cc1cc(F)cc(C)c1C(=O)c1sc2cc(O)ccc2c1-c1ccc(/C=C/C(=O)O)cc1` [Compound 8, (E)-3-(4-(2-(4-fluoro-2,6-dimethylbenzoyl)-6-hydroxybenzo[b]thiophen-3-yl)phenyl)acrylic acid] yielded an IC50 of over 200 nM. For `O=C(O)/C=C/c1ccc(-c2c(C(=O)c3ccccc3Cl)sc3cc(O)ccc23)cc1` [Compound 4, (E)-3-(4-(2-(2-chlorobenzoyl)-6-hydroxybenzo[b]thiophen-3-yl)phenyl)acrylic acid], the IC50 was over 200 nM. For `Cc1cc(C)cc(C(=O)c2sc3cc(O)ccc3c2-c2ccc(/C=C/C(=O)O)cc2)c1` [Compound 11, (E)-3-(4-(2-(3,5-dimethylbenzoyl)-6-hydroxybenzo[b]thiophen-3-yl)phenyl)acrylic acid], the IC50 was over 200 nM. `Cc1cc(F)ccc1C(=O)c1sc2cc(O)ccc2c1-c1ccc(/C=C/C(=O)O)cc1` [Compound 9, (E)-3-(4-(2-(4-fluoro-2-methylbenzoyl)-6-hydroxybenzo[b]thiophen-3-yl)phenyl)acrylic acid] showed an IC50 of over 200 nM. For `O=C(O)/C=C/c1ccc(-c2c(C(=O)c3ccc(O)cc3)sc3cc(O)ccc23)cc1` [Compound 1, (E)-3-(4-(6-hydroxy-2-(4-hydroxybenzoyl)benzo[b]thiophen-3-yl)phenyl)acrylic acid], the IC50 was under 100 nM. With `Cc1ccc(F)cc1C(=O)c1sc2cc(O)ccc2c1-c1ccc(/C=C/C(=O)O)cc1` [Compound 7, (E)-3-(4-(2-(5-fluoro-2-methylbenzoyl)-6-hydroxybenzo[b]thiophen-3-yl)phenyl)acrylic acid] the IC50 was over 200 nM. With `O=C(O)/C=C/Oc1ccc(-c2c(C(=O)c3ccc(O)cc3)sc3cc(O)ccc23)cc1` [Compound 2, (E)-3-(4-(6-hydroxy-2-(4-hydroxybenzoyl)benzo[b]thiophen-3-yl)phenoxy)acrylic acid] the IC50 was under 10 nM. `Cc1cccc(C)c1C(=O)c1sc2cc(O)ccc2c1-c1ccc(/C=C/C(=O)O)cc1` [Compound 10, (E)-3-(4-(2-(2,6-dimethylbenzoyl)-6-hydroxybenzo[b]thiophen-3-yl)phenyl)acrylic acid] showed an IC50 of over 200 nM. `O=C(O)/C=C/c1ccc(-c2c(C(=O)c3ccccc3F)sc3cc(O)ccc23)cc1` [Compound 3, (E)-3-(4-(2-(2-fluorobenzoyl)-6-hydroxybenzo[b]thiophen-3-yl)phenyl)acrylic acid] was tested, and the IC50 was over 200 nM. Work on `Cc1ccccc1C(=O)c1sc2cc(O)ccc2c1-c1ccc(/C=C/C(=O)O)cc1` [Compound 6, (E)-3-(4-(6-hydroxy-2-(2-methylbenzoyl)benzo[b]thiophen-3-yl)phenyl)acrylic acid] yielded an IC50 of over 200 nM. For `O=C(O)/C=C/c1ccc(-c2c(C(=O)c3ccccc3C(F)(F)F)sc3cc(O)ccc23)cc1` [Compound 5, (E)-3-(4-(6-hydroxy-2-(2-(trifluoromethyl)benzoyl)benzo[b]thiophen-3-yl)phenyl)acrylic acid], the IC50 was over 200 nM.

Same assay, conditions: 144 h, Table 2, data normalized to 1 uM fulvestrant, day 6, read-out: MCF-5C growth inhibition IC50
Compound `Cc1cc(OC(F)(F)F)ccc1C(=O)c1sc2cc(O)ccc2c1-c1ccc(/C=C/C(=O)O)cc1` [Compound 13, (E)-3-(4-(6-hydroxy-2-(2-methyl-4-(trifluoromethoxy)benzoyl)benzo[b]thiophen-3-yl)phenyl)acrylic acid] has an IC50 of over 200 nM. In the case of `Cc1cc(O)ccc1C(=O)c1sc2cc(O)ccc2c1-c1ccc(/C=C/C(=O)O)cc1` [Compound 14, (E)-3-(4-(6-hydroxy-2-(4-hydroxy-2-methylbenzoyl)benzo[b]thiophen-3-yl)phenyl)acrylic acid], the IC50 is reported as over 200 nM. With `Cc1cc(O)cc(C)c1C(=O)c1sc2cc(O)ccc2c1-c1ccc(/C=C/C(=O)O)cc1` [Compound 15, (E)-3-(4-(6-hydroxy-2-(4-hydroxy-2,6-dimethylbenzoyl)benzo[b]thiophen-3-yl)phenyl)acrylic acid] the IC50 was over 200 nM. `O=C(O)/C=C/c1ccc(-c2c(C(=O)C3CCCCC3)sc3cc(O)ccc23)cc1` [Compound 12, (E)-3-(4-(2-(cyclohexanecarbonyl)-6-hydroxybenzo[b]thiophen-3-yl)phenyl)acrylic acid] was tested, and the IC50 was under 200 nM.

Each compound was assayed against T1, estrogen receptor (assay: Western blot, estrogen receptor downregulation in T47D:neo cells). Conditions: 24 hours, 1 nM to 1 uM.
Assay type: cell-based
Parameters: Whole-cell extracts of cultured cells were prepared in lysis buffer; endogenous in cells; host or cells: T47D:neo
Description: as §1, §2
In the case of `O=C(O)/C=C/c1ccc(-c2c(C(=O)c3ccc(O)cc3)sc3cc(O)ccc23)cc1` [Compound 1, (E)-3-(4-(6-hydroxy-2-(4-hydroxybenzoyl)benzo[b]thiophen-3-yl)phenyl)acrylic acid], the “estrogen receptor downregulation (western blot)” value is reported as “estrogen receptor downregulation”.
